Experimental data taken from ChEMBL document CHEMBL3233012, “Synthesis, antimicrobial and cytotoxic activities of pyrimidinyl benzoxazole, benzothiazole and benzimidazole” (Eur J Med Chem, 2014).
Converted amounts (≈) assume the structure as drawn. The source made the active and inactive calls. No cut-off for these calls is given here.

What follows are molecules tested on Escherichia coli (assay: Antimicrobial activity against Escherichia coli at 100 ug/well after 24 hrs by agar well diffusion method). Conditions: read-out: DIZ.
Assay type: functional

Row | Compound | zone of inhibition at 100 µg/disc [mm]
1 | Cc1cc(Cl)nc(SCc2nc3ccccc3s2)n1 | 14
2 | Cc1cc(Nc2nc3ccccc3[nH]2)nc(SCc2nc3ccccc3[nH]2)n1 | 25
3 | Cc1cc(Nc2nc3ccccc3o2)nc(SCc2nc3ccccc3o2)n1 | 20
4 | Cc1cc(Sc2nc3ccccc3[nH]2)nc(SCc2nc3ccccc3[nH]2)n1 | 22
5 | Cc1cc(Sc2nc3ccccc3o2)nc(SCc2nc3ccccc3o2)n1 | 17

These molecules were tested on Penicillium chrysogenum (assay: Antimicrobial activity against Penicillium chrysogenum at 100 ug/well after 48 hrs by agar well diffusion method). Conditions: read-out: DIZ.
Assay type: functional

Row | Compound | zone of inhibition at 100 µg/disc [mm]
6 | CC(=O)N1CCN(c2ccc(OCC3COC(Cn4ccnc4)(c4ccc(Cl)cc4Cl)O3)cc2)CC1 (stereo unspecified) [KETOCONAZOLE] | 38
7 | Cc1cc(Cl)nc(SCc2nc3ccccc3s2)n1 | 11
8 | Cc1cc(Nc2nc3ccccc3[nH]2)nc(SCc2nc3ccccc3[nH]2)n1 | 33
9 | Cc1cc(Nc2nc3ccccc3o2)nc(SCc2nc3ccccc3o2)n1 | 24
10 | Cc1cc(Sc2nc3ccccc3[nH]2)nc(SCc2nc3ccccc3[nH]2)n1 | 19
11 | Cc1cc(Sc2nc3ccccc3o2)nc(SCc2nc3ccccc3o2)n1 | 13

What follows are molecules tested on Escherichia coli (assay: Antimicrobial activity against Escherichia coli at 25 ug/well after 24 hrs by agar well diffusion method). Conditions: read-out: DIZ.
Assay type: functional

Row | Compound | zone of inhibition at 25 µg/disc [mm]
12 | Cc1cc(Cl)nc(SCc2nc3ccccc3s2)n1 | 7
13 | Cc1cc(Nc2nc3ccccc3[nH]2)nc(SCc2nc3ccccc3[nH]2)n1 | 19
14 | Cc1cc(Nc2nc3ccccc3o2)nc(SCc2nc3ccccc3o2)n1 | 12
15 | Cc1cc(Sc2nc3ccccc3[nH]2)nc(SCc2nc3ccccc3[nH]2)n1 | 17
16 | Cc1cc(Sc2nc3ccccc3o2)nc(SCc2nc3ccccc3o2)n1 | 10

These molecules were tested on A549 (assay: Cytotoxicity against human A549 cells assessed as reduction in cell viability up to 200 uM after 20 hrs by MTT assay). Conditions: not given.
Assay type: functional, cell-based

Row | Compound | Activity
17 | Cc1cc(Cl)nc(SCc2nc3ccccc3s2)n1 | inactive
18 | Cc1cc(Nc2nc3ccccc3[nH]2)nc(SCc2nc3ccccc3[nH]2)n1 | inactive
19 | Cc1cc(Nc2nc3ccccc3o2)nc(SCc2nc3ccccc3o2)n1 | inactive
20 | Cc1cc(Sc2nc3ccccc3[nH]2)nc(SCc2nc3ccccc3[nH]2)n1 | inactive
21 | Cc1cc(Sc2nc3ccccc3o2)nc(SCc2nc3ccccc3o2)n1 | inactive

Each molecule was assayed on Pseudomonas aeruginosa (assay: Antimicrobial activity against Pseudomonas aeruginosa at 100 ug/well after 24 hrs by agar well diffusion method). Conditions: read-out: DIZ.
Assay type: functional

Row | Compound | zone of inhibition at 100 µg/disc [mm]
22 | Cc1cc(Cl)nc(SCc2nc3ccccc3s2)n1 | 10
23 | Cc1cc(Nc2nc3ccccc3[nH]2)nc(SCc2nc3ccccc3[nH]2)n1 | 21
24 | Cc1cc(Nc2nc3ccccc3o2)nc(SCc2nc3ccccc3o2)n1 | 17
25 | Cc1cc(Sc2nc3ccccc3[nH]2)nc(SCc2nc3ccccc3[nH]2)n1 | 18
26 | Cc1cc(Sc2nc3ccccc3o2)nc(SCc2nc3ccccc3o2)n1 | 14

The molecules below were run on Penicillium chrysogenum (assay: Antimicrobial activity against Penicillium chrysogenum after 24 hrs by broth dilution method). Conditions: not given.
Assay type: functional

Row | Compound | MIC [µg/mL]
27 | CC(=O)N1CCN(c2ccc(OCC3COC(Cn4ccnc4)(c4ccc(Cl)cc4Cl)O3)cc2)CC1 (stereo unspecified) [KETOCONAZOLE] | 12.5 (≈ 23.5 µM)

What follows are molecules tested on Escherichia coli (assay: Antimicrobial activity against Escherichia coli at 50 ug/well after 24 hrs by agar well diffusion method). Conditions: read-out: DIZ.
Assay type: functional

Row | Compound | zone of inhibition at 50 µg/disc [mm]
28 | Cc1cc(Cl)nc(SCc2nc3ccccc3s2)n1 | 10
29 | Cc1cc(Nc2nc3ccccc3[nH]2)nc(SCc2nc3ccccc3[nH]2)n1 | 22
30 | Cc1cc(Nc2nc3ccccc3o2)nc(SCc2nc3ccccc3o2)n1 | 17
31 | Cc1cc(Sc2nc3ccccc3[nH]2)nc(SCc2nc3ccccc3[nH]2)n1 | 20
32 | Cc1cc(Sc2nc3ccccc3o2)nc(SCc2nc3ccccc3o2)n1 | 15

The molecules below were run on Aspergillus niger (assay: Antimicrobial activity against Aspergillus niger at 50 ug/well after 48 hrs by agar well diffusion method). Conditions: read-out: DIZ.
Assay type: functional

Row | Compound | zone of inhibition at 50 µg/disc [mm]
33 | CC(=O)N1CCN(c2ccc(OCC3COC(Cn4ccnc4)(c4ccc(Cl)cc4Cl)O3)cc2)CC1 (stereo unspecified) [KETOCONAZOLE] | 33
34 | Cc1cc(Cl)nc(SCc2nc3ccccc3s2)n1 | 8
35 | Cc1cc(Nc2nc3ccccc3[nH]2)nc(SCc2nc3ccccc3[nH]2)n1 | 23
36 | Cc1cc(Nc2nc3ccccc3o2)nc(SCc2nc3ccccc3o2)n1 | 17
37 | Cc1cc(Sc2nc3ccccc3[nH]2)nc(SCc2nc3ccccc3[nH]2)n1 | 15
38 | Cc1cc(Sc2nc3ccccc3o2)nc(SCc2nc3ccccc3o2)n1 | 10

What follows are molecules tested on Penicillium chrysogenum (assay: Antimicrobial activity against Penicillium chrysogenum at 25 ug/well after 48 hrs by agar well diffusion method). Conditions: read-out: DIZ.
Assay type: functional

Row | Compound | zone of inhibition at 25 µg/disc [mm]
39 | CC(=O)N1CCN(c2ccc(OCC3COC(Cn4ccnc4)(c4ccc(Cl)cc4Cl)O3)cc2)CC1 (stereo unspecified) [KETOCONAZOLE] | 35
40 | Cc1cc(Cl)nc(SCc2nc3ccccc3s2)n1 | 7
41 | Cc1cc(Nc2nc3ccccc3[nH]2)nc(SCc2nc3ccccc3[nH]2)n1 | 29
42 | Cc1cc(Nc2nc3ccccc3o2)nc(SCc2nc3ccccc3o2)n1 | 19
43 | Cc1cc(Sc2nc3ccccc3[nH]2)nc(SCc2nc3ccccc3[nH]2)n1 | 15
44 | Cc1cc(Sc2nc3ccccc3o2)nc(SCc2nc3ccccc3o2)n1 | 9

The molecules below were run on Penicillium chrysogenum (assay: Antimicrobial activity against Penicillium chrysogenum at 50 ug/well after 48 hrs by agar well diffusion method). Conditions: read-out: DIZ.
Assay type: functional

Row | Compound | zone of inhibition at 50 µg/disc [mm]
45 | CC(=O)N1CCN(c2ccc(OCC3COC(Cn4ccnc4)(c4ccc(Cl)cc4Cl)O3)cc2)CC1 (stereo unspecified) [KETOCONAZOLE] | 36
46 | Cc1cc(Cl)nc(SCc2nc3ccccc3s2)n1 | 9
47 | Cc1cc(Nc2nc3ccccc3[nH]2)nc(SCc2nc3ccccc3[nH]2)n1 | 31
48 | Cc1cc(Nc2nc3ccccc3o2)nc(SCc2nc3ccccc3o2)n1 | 21
49 | Cc1cc(Sc2nc3ccccc3[nH]2)nc(SCc2nc3ccccc3[nH]2)n1 | 17
50 | Cc1cc(Sc2nc3ccccc3o2)nc(SCc2nc3ccccc3o2)n1 | 11

What follows are molecules tested on Aspergillus niger (assay: Antimicrobial activity against Aspergillus niger at 25 ug/well after 48 hrs by agar well diffusion method). Conditions: not given.
Assay type: functional

Row | Compound | diameter of the inhibition zone (DIZ)
51 | Cc1cc(Cl)nc(SCc2nc3ccccc3s2)n1 | inactive

Same assay, conditions: read-out: DIZ

Row | Compound | zone of inhibition at 25 µg/disc [mm]
52 | CC(=O)N1CCN(c2ccc(OCC3COC(Cn4ccnc4)(c4ccc(Cl)cc4Cl)O3)cc2)CC1 (stereo unspecified) [KETOCONAZOLE] | 31
53 | Cc1cc(Nc2nc3ccccc3[nH]2)nc(SCc2nc3ccccc3[nH]2)n1 | 20
54 | Cc1cc(Nc2nc3ccccc3o2)nc(SCc2nc3ccccc3o2)n1 | 15
55 | Cc1cc(Sc2nc3ccccc3[nH]2)nc(SCc2nc3ccccc3[nH]2)n1 | 14
56 | Cc1cc(Sc2nc3ccccc3o2)nc(SCc2nc3ccccc3o2)n1 | 8

These molecules were tested on Pseudomonas aeruginosa (assay: Antimicrobial activity against Pseudomonas aeruginosa ATCC 27853 after 24 hrs by broth dilution method). Conditions: not given.
Assay type: functional

Row | Compound | MIC
57 | CC(=O)N1CCN(c2ccc(OCC3COC(Cn4ccnc4)(c4ccc(Cl)cc4Cl)O3)cc2)CC1 (stereo unspecified) [KETOCONAZOLE] | inactive

What follows are molecules tested on Staphylococcus aureus (assay: Antimicrobial activity against Staphylococcus aureus at 100 ug/well after 24 hrs by agar well diffusion method). Conditions: read-out: DIZ.
Assay type: functional

Row | Compound | zone of inhibition at 100 µg/disc [mm]
58 | Cc1cc(Cl)nc(SCc2nc3ccccc3s2)n1 | 16
59 | Cc1cc(Nc2nc3ccccc3[nH]2)nc(SCc2nc3ccccc3[nH]2)n1 | 20
60 | Cc1cc(Nc2nc3ccccc3o2)nc(SCc2nc3ccccc3o2)n1 | 17
61 | Cc1cc(Sc2nc3ccccc3[nH]2)nc(SCc2nc3ccccc3[nH]2)n1 | 19
62 | Cc1cc(Sc2nc3ccccc3o2)nc(SCc2nc3ccccc3o2)n1 | 14

The molecules below were run on Staphylococcus aureus (assay: Antimicrobial activity against Staphylococcus aureus at 25 ug/well after 24 hrs by agar well diffusion method). Conditions: read-out: DIZ.
Assay type: functional

Row | Compound | zone of inhibition at 25 µg/disc [mm]
63 | Cc1cc(Cl)nc(SCc2nc3ccccc3s2)n1 | 6
64 | Cc1cc(Nc2nc3ccccc3[nH]2)nc(SCc2nc3ccccc3[nH]2)n1 | 15
65 | Cc1cc(Nc2nc3ccccc3o2)nc(SCc2nc3ccccc3o2)n1 | 10
66 | Cc1cc(Sc2nc3ccccc3[nH]2)nc(SCc2nc3ccccc3[nH]2)n1 | 13
67 | Cc1cc(Sc2nc3ccccc3o2)nc(SCc2nc3ccccc3o2)n1 | 9

The molecules below were run on Aspergillus niger (assay: Antimicrobial activity against Aspergillus niger after 24 hrs by broth dilution method). Conditions: not given.
Assay type: functional

Row | Compound | MIC [µg/mL]
68 | CC(=O)N1CCN(c2ccc(OCC3COC(Cn4ccnc4)(c4ccc(Cl)cc4Cl)O3)cc2)CC1 (stereo unspecified) [KETOCONAZOLE] | 6.25 (≈ 11.8 µM)

The molecules below were run on Pseudomonas aeruginosa (assay: Antimicrobial activity against Pseudomonas aeruginosa at 25 ug/well after 24 hrs by agar well diffusion method). Conditions: read-out: DIZ.
Assay type: functional

Row | Compound | zone of inhibition at 25 µg/disc [mm]
69 | Cc1cc(Cl)nc(SCc2nc3ccccc3s2)n1 | 7
70 | Cc1cc(Nc2nc3ccccc3[nH]2)nc(SCc2nc3ccccc3[nH]2)n1 | 16
71 | Cc1cc(Nc2nc3ccccc3o2)nc(SCc2nc3ccccc3o2)n1 | 11
72 | Cc1cc(Sc2nc3ccccc3[nH]2)nc(SCc2nc3ccccc3[nH]2)n1 | 14
73 | Cc1cc(Sc2nc3ccccc3o2)nc(SCc2nc3ccccc3o2)n1 | 10

These molecules were tested on Escherichia coli (assay: Antimicrobial activity against Escherichia coli ATCC 25922 after 24 hrs by broth dilution method). Conditions: not given.
Assay type: functional

Row | Compound | MIC
74 | CC(=O)N1CCN(c2ccc(OCC3COC(Cn4ccnc4)(c4ccc(Cl)cc4Cl)O3)cc2)CC1 (stereo unspecified) [KETOCONAZOLE] | inactive

These molecules were tested on Aspergillus niger (assay: Antimicrobial activity against Aspergillus niger at 100 ug/well after 48 hrs by agar well diffusion method). Conditions: read-out: DIZ.
Assay type: functional

Row | Compound | zone of inhibition at 100 µg/disc [mm]
75 | CC(=O)N1CCN(c2ccc(OCC3COC(Cn4ccnc4)(c4ccc(Cl)cc4Cl)O3)cc2)CC1 (stereo unspecified) [KETOCONAZOLE] | 36
76 | Cc1cc(Cl)nc(SCc2nc3ccccc3s2)n1 | 10
77 | Cc1cc(Nc2nc3ccccc3[nH]2)nc(SCc2nc3ccccc3[nH]2)n1 | 25
78 | Cc1cc(Nc2nc3ccccc3o2)nc(SCc2nc3ccccc3o2)n1 | 19
79 | Cc1cc(Sc2nc3ccccc3[nH]2)nc(SCc2nc3ccccc3[nH]2)n1 | 17
80 | Cc1cc(Sc2nc3ccccc3o2)nc(SCc2nc3ccccc3o2)n1 | 12

What follows are molecules tested on Pseudomonas aeruginosa (assay: Antimicrobial activity against Pseudomonas aeruginosa at 50 ug/well after 24 hrs by agar well diffusion method). Conditions: read-out: DIZ.
Assay type: functional

Row | Compound | zone of inhibition at 50 µg/disc [mm]
81 | Cc1cc(Cl)nc(SCc2nc3ccccc3s2)n1 | 9
82 | Cc1cc(Nc2nc3ccccc3[nH]2)nc(SCc2nc3ccccc3[nH]2)n1 | 19
83 | Cc1cc(Nc2nc3ccccc3o2)nc(SCc2nc3ccccc3o2)n1 | 14
84 | Cc1cc(Sc2nc3ccccc3[nH]2)nc(SCc2nc3ccccc3[nH]2)n1 | 17
85 | Cc1cc(Sc2nc3ccccc3o2)nc(SCc2nc3ccccc3o2)n1 | 11

These molecules were tested on Staphylococcus aureus (assay: Antimicrobial activity against Staphylococcus aureus at 50 ug/well after 24 hrs by agar well diffusion method). Conditions: read-out: DIZ.
Assay type: functional

Row | Compound | zone of inhibition at 50 µg/disc [mm]
86 | Cc1cc(Cl)nc(SCc2nc3ccccc3s2)n1 | 4
87 | Cc1cc(Nc2nc3ccccc3[nH]2)nc(SCc2nc3ccccc3[nH]2)n1 | 17
88 | Cc1cc(Nc2nc3ccccc3o2)nc(SCc2nc3ccccc3o2)n1 | 13
89 | Cc1cc(Sc2nc3ccccc3[nH]2)nc(SCc2nc3ccccc3[nH]2)n1 | 16
90 | Cc1cc(Sc2nc3ccccc3o2)nc(SCc2nc3ccccc3o2)n1 | 11

These molecules were tested on Staphylococcus aureus (assay: Antimicrobial activity against Staphylococcus aureus ATCC 25923 after 24 hrs by broth dilution method). Conditions: not given.
Assay type: functional

Row | Compound | MIC
91 | CC(=O)N1CCN(c2ccc(OCC3COC(Cn4ccnc4)(c4ccc(Cl)cc4Cl)O3)cc2)CC1 (stereo unspecified) [KETOCONAZOLE] | inactive
